Measurements taken from patent publication US20120245159A1, “COMPOSITION AND METHOD FOR CONTROLLING ARTHROPOD PESTS” (SUMITOMO CHEMICAL COMPANY, LIMITED, priority 2009, published 2012).

How the values were obtained:
[1] = test system: cotton aphid (Aphis gossypii); assay: Test Example 1: pesticidal effect against cotton aphid by spray treatment (cucumber leaf disk, control value); type: in vivo; conditions: composition of the compound and clothianidin; spray over cucumber leaf disk, 25° C., 5 days; summary of Table 43
Description: A commercially available clothianidin water-soluble agent, manufactured by Sumitomo Chemical Co., Ltd. under the product name of Dantotsu (registered trademark) water-soluble agent, as the neonicotinoide compound was diluted with water. […] In a well of 24-well plate containing agar, a cucumber leaf disk was put on the agar and about 15 cotton aphids (Aphis gossypii) were released on the leaf disk. The test chemical solution (20 μl/well) was sprayed over the leaf disk, followed by storage in a constant-temperature breeding room at 25° C. for 5 days, and then the number of surviving aphids was checked. A control value (%) was calculated by the following equation. […] wherein symbols represents the following meanings. Cb: Number of bugs in non-treated group before treatment Cai: Number of bugs in a non-treated group on observation Tb: Number of bugs in treated group before treatment Tai: Number of bugs in treated group on observation

[2] = test system: brown planthopper (Nilaparvata lugens); assay: Test Example 2: pesticidal effect against brown planthopper by foliage spray treatment of rice (control value); type: in vivo; conditions: foliage spray of rice seedlings, third-instar larvae, after 5 days
[3] = composition of the compound and clothianidin, summary of Table 44
[4] = composition of the compound and dinotefuran, summary of Table 48
[5] = composition of the compound and imidacloprid, summary of Table 47
[6] = composition of the compound and nitenpyram, summary of Table 45
[7] = composition of the compound and thiamethoxam, summary of Table 46

Row | Compound | pesticidal efficacy against cotton aphid (Aphis gossypii) [1] | also measured
1 | FC(F)(F)c1cnc2oc(-c3ccncc3)nc2c1 [Compound 138, 2-pyridin-4-yl-6-(trifluoromethyl)oxazolo[5,4-b]pyridine] | high pesticidal efficacy | 
2 | CSc1cnccc1-c1nc2cc(C(F)(F)F)ccc2o1 [Compound 40, 2-[3-(methylthio)pyridin-4-yl]-5-(trifluoromethyl)benzoxazole] | high pesticidal efficacy | 
3 | CCc1cnccc1-c1nc2cc(OC(F)(F)F)ccc2o1 [Compound 109, 2-(3-ethylpyridin-4-yl)-5-(trifluoromethoxy)benzoxazole] |  | pesticidal efficacy against brown planthopper (Nilaparvata lugens) [2, 3]: high pesticidal efficacy; pesticidal efficacy against brown planthopper (Nilaparvata lugens) [2, 4]: high pesticidal efficacy; pesticidal efficacy against brown planthopper (Nilaparvata lugens) [2, 5]: high pesticidal efficacy; pesticidal efficacy against brown planthopper (Nilaparvata lugens) [2, 6]: high pesticidal efficacy; pesticidal efficacy against brown planthopper (Nilaparvata lugens) [2, 7]: high pesticidal efficacy
4 | CCc1cnccc1-c1nc2cc(C(F)(F)F)ccc2o1 [Compound 35, 2-(3-ethylpyridin-4-yl)-5-(trifluoromethyl)benzoxazole] | high pesticidal efficacy | 
5 | CC(C)N(C)c1cnccc1-c1nc2cc(C(F)(F)F)ccc2o1 [Compound 132, isopropyl-methyl-{4-[5-(trifluoromethyl)benzoxazole-2-yl]pyridin-3-yl}amine] | high pesticidal efficacy | 
6 | FC(F)(F)c1cnc2oc(-c3ccncc3Cl)nc2c1 [Compound 139, 2-(3-chloropyridin-4-yl)-6-(trifluoromethyl)oxazolo[5,4-b]pyridine] |  | pesticidal efficacy against brown planthopper (Nilaparvata lugens) [2, 3]: high pesticidal efficacy; pesticidal efficacy against brown planthopper (Nilaparvata lugens) [2, 4]: high pesticidal efficacy; pesticidal efficacy against brown planthopper (Nilaparvata lugens) [2, 5]: high pesticidal efficacy; pesticidal efficacy against brown planthopper (Nilaparvata lugens) [2, 6]: high pesticidal efficacy; pesticidal efficacy against brown planthopper (Nilaparvata lugens) [2, 7]: high pesticidal efficacy
7 | FC(F)(F)C(F)(F)c1ccc2oc(-c3ccncc3)nc2c1 [Compound 65, 5-(pentafluoroethyl)-2-(pyridin-4-yl)-benzoxazole] | high pesticidal efficacy | 
8 | [O-][n+]1ccc(-c2nc3cc(C(F)(F)F)cnc3o2)c(Cl)c1 [Compound 140, 2-(3-chloro-1-oxypyridin-4-yl)-6-(trifluoromethyl)oxazolo[5,4-b]pyridine] | high pesticidal efficacy | 
9 | FC(F)(F)c1cnc2oc(-c3ccncc3C(F)(F)F)nc2c1 [Compound 144, 6-trifluoromethyl-2-[3-(trifluoromethyl)pyridin-4-yl]-oxazolo[5,4-b]pyridine] | high pesticidal efficacy | 
10 | CCS(=O)(=O)c1cnccc1-c1nc2cc(C(F)(F)F)ccc2o1 [Compound 133, 2-[3-(ethanesulfonyl)pyridin-4-yl]-5-(trifluoromethyl)benzoxazole] | high pesticidal efficacy | 
11 | FC(F)COc1cnccc1-c1nc2cc(C(F)(F)F)ccc2o1 [Compound 110, 2-[3-(2,2-difluoroethoxy)pyridin-4-yl]-5-(trifluoromethyl)benzoxazole] | high pesticidal efficacy | 
12 | COc1cnccc1-c1nc2cc3c(cc2o1)C(F)(F)OC3(F)F [Compound 88, 5,5,7,7-tetrafluoro-2-(3-methoxypyridin-4-yl)-5,7-dihydro-furo[3′,4′:4,5]benzo[1,2-d]oxazole] | high pesticidal efficacy | 
13 | CCS(=O)(=O)c1cnccc1-c1nc2cc(C(F)(F)F)cnc2o1 [Compound 150, 2-[3-(ethanesulfonyl)pyridin-4-yl]-6-(trifluoromethyl)oxazolo[5,4-b]pyridine] | high pesticidal efficacy | 
14 | Cc1c[n+]([O-])ccc1-c1nc2cc(C(F)(F)F)ccc2o1 [Compound 24, 3-methyl-4-[5-(trifluoromethyl)benzoxazole-2-yl]pyridine N-oxide] | high pesticidal efficacy | 
